{"source": "patent US8772446B2", "about": "“Bifunctional chelating agents” (Nordion (Canada) Inc., priority 2010, dated 2014)", "key": {"[1]": {"experiment": "Biodistribution in female ICR mice", "assay_type": "in vivo", "description": "The protocol used in the animal studies was approved by the Institutional Animal Care Committee of the University of British Columbia and was performed in accordance with the Canadian Council on Animal Care Guidelines. A total of 16 female ICR (20-30 g) mice were used for the animal study of each of the three compounds. ^67Ga(dedpa)^+, ^67Ga(66)^+, or ^67Ga(69)^+ was prepared as described above and then diluted in phosphate buffered saline to a concentration of 100 μCi/mL. Each mouse was i.v. injected with ˜10 μCi (100 μL) of the ^67Ga complex and then sacrificed by CO2 inhalation at 30 min, 1 h, 2 h, or 4 h after injection (n=4 at each time point). Blood was collected by cardiac puncture and plasma was separated from whole blood by centrifuging (2500 rpm, 15 min). Urine was collected from the bladder. Tissues collected included kidney, liver, spleen, femur, muscle, heart, lung, intestine and brain. Tissues were weighed and counted on a gamma counter and the counts were converted to % injected dose/gram (% ID/g). Tables 4-6 show the biodistibution data of ^67Ga(dedpa)^+, ^67Ga(66)^+ and ^67Ga(69)^+, respectively, in female ICR mice. FIG. 4 illustrates biodistribution over 4 h of ^67Ga(dedpa)^+ in female ICR mice, and FIG. 5 illustrates biodistribution of ^67Ga(66)^+ (upper) and ^67Ga(69)^+ (lower) in female ICR mice over 4 h; complete data for urine are shown also in separate diagrams to the right."}, "human apo-transferrin": {"target": "human apo-transferrin (Homo sapiens, UniProt P02787)", "sequence (P02787 20-698)": "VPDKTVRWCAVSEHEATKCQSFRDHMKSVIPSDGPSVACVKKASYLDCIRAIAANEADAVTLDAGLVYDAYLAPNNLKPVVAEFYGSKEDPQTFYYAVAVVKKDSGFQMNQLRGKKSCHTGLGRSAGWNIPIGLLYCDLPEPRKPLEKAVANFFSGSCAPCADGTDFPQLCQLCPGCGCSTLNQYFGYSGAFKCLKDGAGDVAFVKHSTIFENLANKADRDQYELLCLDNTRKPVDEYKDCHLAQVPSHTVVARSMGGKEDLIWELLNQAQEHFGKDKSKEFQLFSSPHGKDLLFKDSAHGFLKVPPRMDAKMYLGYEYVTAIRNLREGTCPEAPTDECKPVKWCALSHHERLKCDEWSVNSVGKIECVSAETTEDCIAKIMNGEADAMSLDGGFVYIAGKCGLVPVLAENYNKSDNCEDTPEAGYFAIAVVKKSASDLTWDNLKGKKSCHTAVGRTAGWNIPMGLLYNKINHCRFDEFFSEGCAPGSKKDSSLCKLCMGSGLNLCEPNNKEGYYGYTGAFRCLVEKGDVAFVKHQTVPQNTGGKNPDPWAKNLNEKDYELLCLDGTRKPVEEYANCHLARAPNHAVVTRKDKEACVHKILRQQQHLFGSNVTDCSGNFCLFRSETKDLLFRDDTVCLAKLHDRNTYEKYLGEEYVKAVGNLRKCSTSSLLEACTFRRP", "experiment": "^67Ga complex stability: 2-h competition with excess human apo-transferrin, HPLC", "settings": "^67Ga complex, up to 2 h", "protocol": "FIG. 13 illustrates stacked labelling traces of ^67Ga(dedpa)^+ of 2 h stability experiment against apo-transferrin (gradient: A: NaOAc buffer, pH 4.5, B: MeOH. 0-100% B linear gradient 20 min)."}, "[2]": {"experiment": "Serum stability studies done in vitro (^67Ga)", "assay_type": "in vitro ADME"}, "[3]": {"experiment": "Solution thermodynamics: formation constants (log KML) and pM of Ga(III) complexes, potentiometric titration", "assay_type": "physicochemical", "settings": "Ga(III) complex; ligand-ligand competition with EDTA, potentiometric titration, 25 °C, 0.16 M NaCl", "description": "A more relevant indicator of the extent to which a metal complex is formed in solution is given by pM (−log free M) which considers the influence of ligand basicity and chelate hydrolysis.\nCarbonate-free solutions of the titrant, NaOH, were prepared by dilution of 50% solution (Acros Organics) with freshly boiled MQ water under a stream of purified nitrogen gas. The solution was standardized with potassium acid phthalate and the extent of carbonate accumulation was periodically checked by titration with a standard hydrochloric acid solution and determination of the corresponding Gran titration plot.^47 Gallium ion solutions were prepared by dilution of the appropriate atomic absorption (AA) standard. The exact amount of acid present in the gallium standard was determined by titration of an equimolar solution of Ga and Na2H2EDTA. The amount of acid present was determined by Gran's method.^47\nData were collected in triplicate using PC Control (Version 6.0.91, Metrohm). The titration apparatus consisted of a 10 mL water jacketed glass vessel maintained at 25.0±0.1° C. (Julabo waterbath). Prior to and during the course of the titration, a blanket of nitrogen, passed through 10% NaOH to exclude any CO2, was maintained over the sample solution. The ionic strength was maintained at 0.16 M using NaCl. Prior to each potentiometric equilibrium study, the electrode was calibrated using standard HCl solutions. Calibration data were analysed by standard computer treatment provided within the program MacCalib to obtain the calibration parameters E0 and pKw.\nAs the degree of formation of Ga(III) complexes at low pH (<2) was too high for the determination of stability constants by use of direct potentiometry, the ligand-ligand competition method using Na2H2EDTA was also performed."}}}
{"compound": "O=C(O)c1cccc(CNCCNCc2cccc(C(=O)O)n2)n1", "note": "[^67Ga(dedpa)^+, metal not drawn]", "values": [{"measurement": "Biodistribution, Brain, 30 min", "setting": "[1]; Brain, 30 min after i.v. injection, mean ± SD, 4 animals", "result": "0.264 ± 0.132", "unit": "% ID/g"}, {"measurement": "Biodistribution, Brain, 1 h", "setting": "[1]; Brain, 1 h after i.v. injection, mean ± SD, 4 animals", "result": "0.246 ± 0.123", "unit": "% ID/g"}, {"measurement": "Biodistribution, Brain, 2 h", "setting": "[1]; Brain, 2 h after i.v. injection, mean ± SD, 4 animals", "result": "0.213 ± 0.106", "unit": "% ID/g"}, {"measurement": "Biodistribution, Brain, 4 h", "setting": "[1]; Brain, 4 h after i.v. injection, mean ± SD, 4 animals", "result": "0.139 ± 0.069", "unit": "% ID/g"}, {"measurement": "Biodistribution, Femur, 30 min", "setting": "[1]; Femur, 30 min after i.v. injection, mean ± SD, 4 animals", "result": "2.180 ± 1.090", "unit": "% ID/g"}, {"measurement": "Biodistribution, Femur, 1 h", "setting": "[1]; Femur, 1 h after i.v. injection, mean ± SD, 4 animals", "result": "2.136 ± 1.068", "unit": "% ID/g"}, {"measurement": "Biodistribution, Femur, 2 h", "setting": "[1]; Femur, 2 h after i.v. injection, mean ± SD, 4 animals", "result": "1.893 ± 0.946", "unit": "% ID/g"}, {"measurement": "Biodistribution, Femur, 4 h", "setting": "[1]; Femur, 4 h after i.v. injection, mean ± SD, 4 animals", "result": "2.218 ± 1.109", "unit": "% ID/g"}, {"measurement": "Biodistribution, Heart, 30 min", "setting": "[1]; Heart, 30 min after i.v. injection, mean ± SD, 4 animals", "result": "2.645 ± 1.323", "unit": "% ID/g"}, {"measurement": "Biodistribution, Heart, 1 h", "setting": "[1]; Heart, 1 h after i.v. injection, mean ± SD, 4 animals", "result": "2.490 ± 1.245", "unit": "% ID/g"}, {"measurement": "Biodistribution, Heart, 2 h", "setting": "[1]; Heart, 2 h after i.v. injection, mean ± SD, 4 animals", "result": "2.412 ± 1.206", "unit": "% ID/g"}, {"measurement": "Biodistribution, Heart, 4 h", "setting": "[1]; Heart, 4 h after i.v. injection, mean ± SD, 4 animals", "result": "2.004 ± 1.002", "unit": "% ID/g"}, {"measurement": "Biodistribution, Intestine, 30 min", "setting": "[1]; Intestine, 30 min after i.v. injection, mean ± SD, 4 animals", "result": "2.099 ± 1.050", "unit": "% ID/g"}, {"measurement": "Biodistribution, Intestine, 1 h", "setting": "[1]; Intestine, 1 h after i.v. injection, mean ± SD, 4 animals", "result": "2.123 ± 1.062", "unit": "% ID/g"}, {"measurement": "Biodistribution, Intestine, 2 h", "setting": "[1]; Intestine, 2 h after i.v. injection, mean ± SD, 4 animals", "result": "1.995 ± 0.998", "unit": "% ID/g"}, {"measurement": "Biodistribution, Intestine, 4 h", "setting": "[1]; Intestine, 4 h after i.v. injection, mean ± SD, 4 animals", "result": "1.990 ± 0.995", "unit": "% ID/g"}, {"measurement": "Biodistribution, Kidney, 30 min", "setting": "[1]; Kidney, 30 min after i.v. injection, mean ± SD, 4 animals", "result": "8.089 ± 4.009", "unit": "% ID/g"}, {"measurement": "Biodistribution, Kidney, 1 h", "setting": "[1]; Kidney, 1 h after i.v. injection, mean ± SD, 4 animals", "result": "7.827 ± 3.914", "unit": "% ID/g"}, {"measurement": "Biodistribution, Kidney, 2 h", "setting": "[1]; Kidney, 2 h after i.v. injection, mean ± SD, 4 animals", "result": "9.149 ± 4.575", "unit": "% ID/g"}, {"measurement": "Biodistribution, Kidney, 4 h", "setting": "[1]; Kidney, 4 h after i.v. injection, mean ± SD, 4 animals", "result": "8.301 ± 4.150", "unit": "% ID/g"}, {"measurement": "Biodistribution, Liver, 30 min", "setting": "[1]; Liver, 30 min after i.v. injection, mean ± SD, 4 animals", "result": "3.702 ± 1.851", "unit": "% ID/g"}, {"measurement": "Biodistribution, Liver, 1 h", "setting": "[1]; Liver, 1 h after i.v. injection, mean ± SD, 4 animals", "result": "3.695 ± 1.847", "unit": "% ID/g"}, {"measurement": "Biodistribution, Liver, 2 h", "setting": "[1]; Liver, 2 h after i.v. injection, mean ± SD, 4 animals", "result": "3.173 ± 1.586", "unit": "% ID/g"}, {"measurement": "Biodistribution, Liver, 4 h", "setting": "[1]; Liver, 4 h after i.v. injection, mean ± SD, 4 animals", "result": "2.736 ± 1.368", "unit": "% ID/g"}, {"measurement": "Biodistribution, Lung, 30 min", "setting": "[1]; Lung, 30 min after i.v. injection, mean ± SD, 4 animals", "result": "4.878 ± 2.439", "unit": "% ID/g"}, {"measurement": "Biodistribution, Lung, 1 h", "setting": "[1]; Lung, 1 h after i.v. injection, mean ± SD, 4 animals", "result": "4.896 ± 2.448", "unit": "% ID/g"}, {"measurement": "Biodistribution, Lung, 2 h", "setting": "[1]; Lung, 2 h after i.v. injection, mean ± SD, 4 animals", "result": "4.846 ± 2.423", "unit": "% ID/g"}, {"measurement": "Biodistribution, Lung, 4 h", "setting": "[1]; Lung, 4 h after i.v. injection, mean ± SD, 4 animals", "result": "3.260 ± 1.630", "unit": "% ID/g"}, {"measurement": "Biodistribution, Muscle, 30 min", "setting": "[1]; Muscle, 30 min after i.v. injection, mean ± SD, 4 animals", "result": "1.210 ± 0.605", "unit": "% ID/g"}, {"measurement": "Biodistribution, Muscle, 1 h", "setting": "[1]; Muscle, 1 h after i.v. injection, mean ± SD, 4 animals", "result": "1.153 ± 0.576", "unit": "% ID/g"}, {"measurement": "Biodistribution, Muscle, 2 h", "setting": "[1]; Muscle, 2 h after i.v. injection, mean ± SD, 4 animals", "result": "1.092 ± 0.546", "unit": "% ID/g"}, {"measurement": "Biodistribution, Muscle, 4 h", "setting": "[1]; Muscle, 4 h after i.v. injection, mean ± SD, 4 animals", "result": "1.127 ± 0.564", "unit": "% ID/g"}, {"measurement": "Biodistribution, Serum, 30 min", "setting": "[1]; Serum, 30 min after i.v. injection, mean ± SD, 4 animals", "result": "16.067 ± 8.033", "unit": "% ID/g"}, {"measurement": "Biodistribution, Serum, 1 h", "setting": "[1]; Serum, 1 h after i.v. injection, mean ± SD, 4 animals", "result": "9.047 ± 4.524", "unit": "% ID/g"}, {"measurement": "Biodistribution, Serum, 2 h", "setting": "[1]; Serum, 2 h after i.v. injection, mean ± SD, 4 animals", "result": "12.042 ± 6.021", "unit": "% ID/g"}, {"measurement": "Biodistribution, Serum, 4 h", "setting": "[1]; Serum, 4 h after i.v. injection, mean ± SD, 4 animals", "result": "12.235 ± 6.118", "unit": "% ID/g"}, {"measurement": "Biodistribution, Spleen, 30 min", "setting": "[1]; Spleen, 30 min after i.v. injection, mean ± SD, 4 animals", "result": "1.366 ± 0.683", "unit": "% ID/g"}, {"measurement": "Biodistribution, Spleen, 1 h", "setting": "[1]; Spleen, 1 h after i.v. injection, mean ± SD, 4 animals", "result": "1.357 ± 0.679", "unit": "% ID/g"}, {"measurement": "Biodistribution, Spleen, 2 h", "setting": "[1]; Spleen, 2 h after i.v. injection, mean ± SD, 4 animals", "result": "1.273 ± 0.637", "unit": "% ID/g"}, {"measurement": "Biodistribution, Spleen, 4 h", "setting": "[1]; Spleen, 4 h after i.v. injection, mean ± SD, 4 animals", "result": "0.989 ± 0.495", "unit": "% ID/g"}, {"measurement": "Excretion route (in words)", "setting": "[1]; mice, i.v.", "result": "excreted mainly through the kidneys"}, {"measurement": "Time to clearance from background tissue, such as muscle", "setting": "[1]; mice, i.v.", "result": "≤ 30", "unit": "min"}, {"measurement": "Bone uptake (in words)", "setting": "[1]; mice, i.v., indicator for complex stability", "result": "low uptake in bone"}, {"measurement": "Complex stability against apo-transferrin (in words)", "setting": "human apo-transferrin; listed as 67/68Ga(dedpa)^+", "result": "No decomposition was detected"}, {"measurement": "Complex stability against apo-transferrin (in words)", "setting": "human apo-transferrin; listed as 67Ga(dedpa)^+", "result": "fully intact"}, {"measurement": "Complex stability against apo-transferrin (in words)", "setting": "human apo-transferrin; listed as Ga(dedpa)^+", "result": "no decomposition was detected"}, {"measurement": "Serum stability in vitro (in words)", "setting": "[2]", "result": "stable to transchelation by serum proteins"}, {"measurement": "log KML", "setting": "[3]", "result": "28.11(8)"}]}
